Reference: US20230339970A1, “CASEIN KINASE 1 DELTA MODULATORS” (priority 2020, published 2023)

Columns and labels:
human CSNK1D = target: T1, human CSNK1D (Homo sapiens, UniProt P48730); experiment: Whole Cell nBRET CSNK1D Binding Assay; conditions: living CHO cells stably expressing human CSNK1D tagged with nanoluciferase; NanoBret tracer 130 nM; 2 hours at 37 C
T1 construct: expressed in transfected cells

[1] = target: T2, human recombinant GST cleaved CSNK1D (Homo sapiens, UniProt P48730); experiment: Purified Enzyme Assay (ADP-Glo CSNK1D Kinase Assay); type: biochemical; conditions: 2 nM CSNK1D; peptide substrate 150 μM; ATP 20 μM; 45 minutes at room temperature
T2 construct: GST (cleaved yes); purchased University of Dundee clone DU 19064
T2 sequence (P48730 whole entry): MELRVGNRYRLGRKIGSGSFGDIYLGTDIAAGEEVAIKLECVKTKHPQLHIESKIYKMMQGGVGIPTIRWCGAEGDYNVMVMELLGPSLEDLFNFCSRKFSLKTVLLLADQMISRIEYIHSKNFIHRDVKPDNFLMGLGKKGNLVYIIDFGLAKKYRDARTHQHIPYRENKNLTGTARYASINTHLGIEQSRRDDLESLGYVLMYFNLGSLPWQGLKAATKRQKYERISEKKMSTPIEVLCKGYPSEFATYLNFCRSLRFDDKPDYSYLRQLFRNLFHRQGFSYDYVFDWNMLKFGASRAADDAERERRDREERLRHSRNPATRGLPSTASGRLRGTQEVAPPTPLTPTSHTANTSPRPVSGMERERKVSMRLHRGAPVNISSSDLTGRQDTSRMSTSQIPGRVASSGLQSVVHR
Outline: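 Percent activity derived from ADP-Glo quantification of ADP produced. Reactions: compound dose-response with human recombinant GST-cleaved CSNK1D, ATP and substrate peptide PLSRTL-pS-VASLPGL, incubated 45 min at room temperature.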

T1 sequence (P48730 whole entry): as above

| IC50 (human CSNK1D) [nM] | IC50 [1] [nM] | SMILES |
| --- | --- | --- |
| 2350 | 111 | Cc1cc(-c2c(-c3ccc(F)cn3)nn3c2COCC3(C)C)c2cn[nH]c2n1 [Example 123, 2-(5-Fluoro-2-pyridyl)-7,7-dimethyl-3-(6-methyl-1H-pyrazolo[3,4-b]pyridin-4-yl)-4,6-dihydropyrazolo[5,1-c][1,4]oxazine] |
| 32 | 2 | CC1(C)Cc2c(-c3ccnc4[nH]ncc34)c(-c3ccc(F)cn3)nn2C1 [Example 234, 4-[2-(5-Fluoro-2-pyridyl)-5,5-dimethyl-4,6-dihydropyrrolo[1,2-b]pyrazol-3-yl]-1H-pyrazolo[3,4-b]pyridine] |
| 371 | 22 | C[C@@H]1Cn2nc(-c3ccc(F)cn3)c(-c3ccnc4[nH]ncc34)c2CO1 (single isomer, unassigned) [Example 85, (*R)-2-(5-Fluoro-2-pyridyl)-6-methyl-3-(1H-pyrazolo[3,4-b]pyridin-4-yl)-6,7-dihydro-4H-pyrazolo[5,1-c][1,4]oxazine] |
| 6 | 5 | C[C@@]1(CF)CCc2c(-c3ccnc4[nH]nc(Cl)c34)c(-c3ccc(F)cn3)nn2C1 (single isomer, unassigned) [Example 291, (*R)-3-Chloro-4-(6-(fluoromethyl)-2-(5-fluoropyridin-2-yl)-6-methyl-4,5,6,7-tetrahydropyrazolo[1,5-a]pyridin-3-yl)-1H-pyrazolo[3,4-b]pyridine] |
| 137 | 9 | [2H]C([2H])([2H])C1(C([2H])([2H])[2H])Cn2nc(-c3ccc(F)cn3)c(-c3c(F)cnc4[nH]nc(C)c34)c2CO1 [Example 404, 3-(5-Fluoro-3-methyl-1H-pyrazolo[3,4-b]pyridin-4-yl)-2-(5-fluoropyridin-2-yl)-6,6-bis(methyl-d3)-6,7-dihydro-4H-pyrazolo[5,1-c][1,4]oxazine] |
| 827 | 21 | CC1(C)Cn2nc(-c3cnco3)c(-c3ccnc4[nH]ncc34)c2CO1 [Example 126, 6,6-Dimethyl-2-(oxazol-5-yl)-3-(1H-pyrazolo[3,4-b]pyridin-4-yl)-6,7-dihydro-4H-pyrazolo[5,1-c][1,4]oxazine] |
| 46 | 5 | C[C@@H]1n2nc(-c3ccc(F)cn3)c(-c3ccnc4[nH]nc(Cl)c34)c2COC1(C)C (single isomer, unassigned) [Example 437, (*S)-3-(3-Chloro-1H-pyrazolo[3,4-b]pyridin-4-yl)-2-(5-fluoropyridin-2-yl)-6,6,7-trimethyl-6,7-dihydro-4H-pyrazolo[5,1-c][1,4]oxazine] |
| 34 | 6 | COCC1(F)CCc2c(-c3c(F)c(C)nc4[nH]ncc34)c(-c3ccc(F)cn3)nn2C1 (single isomer, unassigned) [Example 308, (*S)-5-Fluoro-4-[6-fluoro-2-(5-fluoro-2-pyridyl)-6-(methoxymethyl)-5,7-dihydro-4H-pyrazolo[1,5-a]pyridin-3-yl]-6-methyl-1H-pyrazolo[3,4-b]pyridine] |
| 74 | 4 | Cc1nc(-c2c(-c3ccc(F)cc3)nn3c2COC(C(F)(F)F)C3)c2cn[nH]c2n1 (single isomer, unassigned) [Example 376, (*R)-2-(4-Fluorophenyl)-3-(6-methyl-1H-pyrazolo[3,4-d]pyrimidin-4-yl)-6-(trifluoromethyl)-6,7-dihydro-4H-pyrazolo[5,1-c][1,4]oxazine] |
| 219 | 25 | [2H]C([2H])([2H])C1(C([2H])([2H])[2H])Cn2nc(-c3ccc(F)cn3)c(-c3c(Cl)c(C)nc4[nH]ncc34)c2CO1 [Example 407, 3-(5-Chloro-6-methyl-1H-pyrazolo[3,4-b]pyridin-4-yl)-2-(5-fluoropyridin-2-yl)-6,6-bis(methyl-d3)-6,7-dihydro-4H-pyrazolo[5,1-c][1,4]oxazine] |
| 21 | 2 | [2H]C([2H])([2H])C1(C([2H])([2H])[2H])Cn2nc(-c3ccc(F)cn3)c(-c3ccnc(NC(=O)CC)c3)c2CO1 [Example 395, N-(4-(2-(5-Fluoropyridin-2-yl)-6,6-bis(methyl-d3)-6,7-dihydro-4H-pyrazolo[5,1-c][1,4]oxazin-3-yl)pyridin-2-yl)propionamide] |
| 246 | 17 | Cc1cc(-c2c(-c3ccc(F)cn3)nn3c2O[C@H](C)CC3)c2cn[nH]c2n1 (single isomer, unassigned) [Example 201, (*R)-2-(5-Fluoro-2-pyridyl)-5-methyl-3-(6-methyl-1H-pyrazolo[3,4-b]pyridin-4-yl)-6,7-dihydro-5H-pyrazolo[5,1-b][1,3]oxazine] |
| 109 | 65 | Cc1n[nH]c2nc(C(F)F)cc(-c3c(-c4ccc(F)cc4)nn4c3COC(C(F)(F)F)C4)c12 (single isomer, unassigned) [Example 375, (*R)-3-[6-(Difluoromethyl)-3-methyl-1H-pyrazolo[3,4-b]pyridin-4-yl]-2-(4-fluorophenyl)-6-(trifluoromethyl)-6,7-dihydro-4H-pyrazolo[5,1-c][1,4]oxazine] |
| 24 | 2 | Fc1ccc(-c2nn3c(c2-c2ccnc4[nH]ncc24)OCC2(CC2)C3)nc1 [Example 460, 2′-(5-Fluoropyridin-2-yl)-3′-(1H-pyrazolo[3,4-b]pyridin-4-yl)-5′H,7′H-spiro[cyclopropane-1,6′-pyrazolo[5,1-b][1,3]oxazine]] |
| 270 | 12 | Cc1cc(-c2c(-c3cscn3)nn3c2COC(C)(C)C3)c2cn[nH]c2n1 [Example 125, 6,6-Dimethyl-3-(6-methyl-1H-pyrazolo[3,4-b]pyridin-4-yl)-2-(thiazol-4-yl)-6,7-dihydro-4H-pyrazolo[5,1-c][1,4]oxazine] |
| 35 | 1 | Fc1ccc(-c2nn3c(c2-c2ccnc4[nH]ccc24)CCC3)nc1 [Example 6, 4-(2-(5-Fluoropyridin-2-yl)-5,6-dihydro-4H-pyrrolo[1,2-b]pyrazol-3-yl)-1H-pyrrolo[2,3-b]pyridine] |
| 8 | 1 | Cc1cc(-c2c(-c3ccc(F)cn3)nn3c2CC(C)(C)C3)c2cc[nH]c2n1 [Example 235, 4-[2-(5-Fluoro-2-pyridyl)-5,5-dimethyl-4,6-dihydropyrrolo[1,2-b]pyrazol-3-yl]-6-methyl-1H-pyrrolo[2,3-b]pyridine] |
| 345 | 23 | COc1ccc2nccc(-c3c(-c4ccc(F)cn4)nn4c3CC[C@@H]4C)c2n1 [Example 22, 8-[(6S)-2-(5-Fluoro-2-pyridyl)-6-methyl-5,6-dihydro-4H-pyrrolo[1,2-b]pyrazol-3-yl]-2-methoxy-1,5-naphthyridine] |
| 105 | 14 | CC1(CC2COC2)CCc2c(-c3ccnc4[nH]ncc34)c(-c3ccc(F)cn3)nn2C1 (single isomer, unassigned) [Example 320, (*R)-4-(2-(5-Fluoropyridin-2-yl)-6-methyl-6-(oxetan-3-ylmethyl)-4,5,6,7-tetrahydropyrazolo[1,5-a]pyridin-3-yl)-1H-pyrazolo[3,4-b]pyridine] |
| 187 | 25 | Fc1ccc(-c2nn3c(c2-c2ccnc4cn[nH]c24)OCC(F)(F)C3)cc1 [Example 468, 6,6-Difluoro-2-(4-fluorophenyl)-3-(1H-pyrazolo[4,3-b]pyridin-7-yl)-5,7-dihydropyrazolo[5,1-b][1,3]oxazine] |
| 31 | 4 | COC[C@]1(F)CCc2c(-c3cc(C)nc4[nH]ncc34)c(-c3ccc(F)cn3)nn2C1 (single isomer, unassigned) [Example 53, (*S)-4-(6-Fluoro-2-(5-fluoropyridin-2-yl)-6-(methoxymethyl)-4,5,6,7-tetrahydropyrazolo[1,5-a]pyridin-3-yl)-6-methyl-1H-pyrazolo[3,4-b]pyridine] |
| 7 | 1 | Fc1ccc(-c2nn3c(c2-c2ccnc4[nH]nc(Cl)c24)OCC2(CC2)C3)nc1 [Example 458, 3′-(3-Chloro-1H-pyrazolo[3,4-b]pyridin-4-yl)-2′-(5-fluoropyridin-2-yl)-5′H,7′H-spiro[cyclopropane-1,6′-pyrazolo[5,1-b][1,3]oxazine]] |
| 3610 | 148 | CNC(=O)c1cc(-c2c(-c3ccc(F)cn3)nn3c2COC(C)(C(F)(F)F)C3)ccn1 (stereo not shown) [Example 175, 4-(2-(5-Fluoropyridin-2-yl)-6-methyl-6-(trifluoromethyl)-6,7-dihydro-4H-pyrazolo[5,1-c][1,4]oxazin-3-yl)-N-methylpicolinamide] |
| 40 | 4 | [2H]C([2H])([2H])[C@@]1(C(F)(F)F)Cn2nc(-c3ccc(F)cn3)c(-c3ccnc4[nH]ncc34)c2CO1 (single isomer, unassigned) [Example 424, (*S)-2-(5-Fluoropyridin-2-yl)-6-(methyl-d3)-3-(1H-pyrazolo[3,4-b]pyridin-4-yl)-6-(trifluoromethyl)-6,7-dihydro-4H-pyrazolo[5,1-c][1,4]oxazine] |

| SMILES | IC50 (human CSNK1D) [nM] | IC50 [1] [nM] |
| --- | --- | --- |
| COCC[C@@]1(C)CCc2c(-c3ccnc4[nH]ncc34)c(-c3ccc(F)cn3)nn2C1 (single isomer, unassigned) [Example 319, (*R)-4-[2-(5-Fluoro-2-pyridyl)-6-(2-methoxyethyl)-6-methyl-5,7-dihydro-4H-pyrazolo[1,5-a]pyridin-3-yl]-1H-pyrazolo[3,4-b]pyridine] | 81 | 5 |
| Fc1ccc(-c2nn3c(c2-c2ccnc4[nH]ncc24)COCC3)nc1 [Example 78, 2-(5-Fluoro-2-pyridyl)-3-(1H-pyrazolo[3,4-b]pyridin-4-yl)-6,7-dihydro-4H-pyrazolo[5,1-c][1,4]oxazine] | 337 | 15 |
